Measurements taken from patent EP0908183A1, “Dehydroepiandrosterone or derivatives thereof for increasing the content of hyaluronic acid in skin” (INSTITUTE FOR ADVANCED SKIN RESEARCH INC., priority 1997, dated 1999).

Tests used:
[1] = acute toxicity tests with mice; details: mouse, in vivo
Description: It was confirmed that dehydroepiandrosterone (DHEA), which is used as an active ingredient in the present invention, was effective in increasing the hyaluronic acid content of skin to prevent and treat the symptoms of aging of skin. It was also confirmed that dehydroepiandrosterone was effective in inhibiting scar formation during the healing of an injury to skin. In addition, unlike retinoic acid which is teratogenic and estrogens that induce cardiovascular disorders, DHEA in its stable sulfate form has been commercialized as a drug that aids the process of childbirth and is used in clinical applications.

[2] = system: content of hyaluronic acid in skin; test: content of hyaluronic acid in skin of aging mice after application to dorsal skin; assay type: in vivo; details: aging mice Balb/c; for efficacy in increasing the content of hyaluronic acid in skin when combined with alimidex: DHEA administered simultaneously with aromatase inhibitor alimidex
Description: Dehydroepiandrosterone (DHEA) as an ethanol solution at a concentration of 10^-1M was applied to skin of the dorsal part of aging mice (Balb/c, 48 weeks old, in each group consisting of 6 animals) for 5 weeks.
To evaluate the reproducibility of its efficacy, DHEA was applied in various concentrations of 10^-1, 10^-2 and 10^-3M to aging mice (Balb/c, 53 weeks, in each group consisting of 8 animals). Further, in order to see whether DHEA became effective only after it was metabolized to estrodiol, alimidex that inhibited aromatase, which is an enzyme for causing a conversion to estrogens, was administered simultaneously with DHEA. […] This means the concentration of DHEA can be lowered to a tenth of the initial value.

**Q.** With `C[C@]12CC[C@H](O)CC1=CC[C@@H]1[C@@H]2CC[C@]2(C)C(=O)CC[C@@H]12` [DHEA, dehydroepiandrosterone] as the compound, how does the LD50 ([1]; iv, injected intravenously) read?
**A.** Its LD50 is 274 mg/kg.

**Q.** And the LD50 ([1]; po, peroral)?
**A.** Its LD50 is ≥ 10000 mg/kg.

**Q.** What about the LD50 ([1]; sc, injected subcutaneously) of the same compound?
**A.** The LD50 was 899 mg/kg.

**Q.** And the “content of hyaluronic acid in skin” value ([2]; 10^-1M, 53 weeks, reproducibility experiment, Fig. 2)?
**A.** The value was “statistically significant increase”.

**Q.** What about the “content of hyaluronic acid in skin” value ([2]; 10^-2M, 53 weeks, reproducibility experiment, Fig. 2) of the same compound?
**A.** Its value is “statistically significant increase”.

**Q.** What about the “efficacy in increasing the content of hyaluronic acid in skin when combined with alimidex” value ([2]; 53 weeks, Fig. 2) of the same compound?
**A.** The value was “not suppressed”.

**Q.** And the “efficacy in increasing the content of hyaluronic acid in skin when combined with alimidex” value ([2]; 53 weeks, Fig. 2, listed as dehydroepiandrosterone)?
**A.** The value was “not lowered”.

**Q.** And the “content of hyaluronic acid in skin” value ([2]; ethanol solution 10^-1M applied to dorsal skin for 5 weeks, 48 weeks old, vs control group, Fig. 1)?
**A.** The value was “increased the content of hyaluronic acid in skin with a statistically significant difference from the control group”.

**Q.** For `CC(C)(C#N)c1cc(Cn2cncn2)cc(C(C)(C)C#N)c1` [alimidex, reference compound], which “content of hyaluronic acid in skin” value ([2]; aromatase inhibitor applied alone, 53 weeks, Fig. 2) is on record?
**A.** The value was “no ability to increase the content of hyaluronic acid”.
